The target in assay [1] is T1, human JAK2 (a.a. 828-1132) (Homo sapiens, UniProt O60674).
T1 construct: JAK2 (a.a. 828-1132); His tag (N); made in house; host or cells: insect cells (baculovirus)
Nature of the assay: In vitro JAK kinase assay (HTRF, phosphorylation of a biotinylated peptide), JAK2. The class given is biochemical. Particulars: Table D1. On the procedure:
(§1) The catalytic activity of JAK1, JAK2 or JAK3 was assayed by measuring the phosphorylation of a biotinylated peptide. The phosphorylated peptide was detected by homogenous time resolved fluorescence (HTRF). […] The ATP concentration in the reactions was 90 μM for JAK1, 30 μM for JAK2 and 3 μM for JAK3. Reactions were carried out at room temperature for 1 hr and then stopped with 20 μL 45 mM EDTA, 300 nM SA-APC, 6 nM Eu-Py20 in assay buffer (Perkin Elmer, Boston, Mass.). Binding to the Europium labeled antibody took place for 40 minutes and HTRF signal was measured on a Fusion plate reader (Perkin Elmer, Boston, Mass.).
(§2) The catalytic activity of JAK1, JAK2 or JAK3 was assayed by measuring the phosphorylation of a biotinylated peptide. The phosphorylated peptide was detected by homogenous time resolved fluorescence (HTRF). […] Reactions were carried out at room temperature for 1 hr and then stopped with 20 μL 45 mM EDTA, 300 nM SA-APC, 6 nM Eu-Py20 in assay buffer (Perkin Elmer, Boston, Mass.). Binding to the Europium labeled antibody took place for 40 minutes and HTRF signal was measured on a Fusion plate reader (Perkin Elmer, Boston, Mass.).
For orientation: Time-resolved FRET reads energy transfer from a long-lived donor to a nearby acceptor.

Assay [2] deals with T2, human JAK1 (a.a. 837-1142) (Homo sapiens, UniProt P23458).
T2 construct: human JAK1 (a.a. 837-1142); His tag (N); made in house; host or cells: insect cells (baculovirus)
Briefly: In vitro JAK kinase assay (HTRF, phosphorylation of a biotinylated peptide), JAK1. Particulars: Table D1; read-out: JAK1 IC50. It is filed as biochemical. On the procedure: as §1, §2

T1 sequence (O60674 828-1132): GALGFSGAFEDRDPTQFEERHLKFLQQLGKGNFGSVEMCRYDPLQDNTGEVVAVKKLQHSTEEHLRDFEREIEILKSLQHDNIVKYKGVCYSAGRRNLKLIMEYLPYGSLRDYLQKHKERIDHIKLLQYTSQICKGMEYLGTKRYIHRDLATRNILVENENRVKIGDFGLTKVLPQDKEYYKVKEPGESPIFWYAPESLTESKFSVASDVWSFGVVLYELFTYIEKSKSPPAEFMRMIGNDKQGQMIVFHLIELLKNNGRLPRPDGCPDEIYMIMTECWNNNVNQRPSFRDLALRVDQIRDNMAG
T2 sequence (P23458 849-1154): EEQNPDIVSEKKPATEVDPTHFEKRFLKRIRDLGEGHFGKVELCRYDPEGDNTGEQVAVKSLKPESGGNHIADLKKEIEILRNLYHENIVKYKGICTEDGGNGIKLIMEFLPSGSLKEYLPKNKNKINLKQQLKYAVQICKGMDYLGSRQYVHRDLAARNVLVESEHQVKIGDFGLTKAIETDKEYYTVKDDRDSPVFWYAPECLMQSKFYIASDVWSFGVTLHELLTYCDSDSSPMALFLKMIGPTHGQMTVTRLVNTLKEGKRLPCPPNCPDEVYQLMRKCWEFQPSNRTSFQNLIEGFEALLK

A word on the IC50: it is the point on the concentration scale where inhibition reaches its midpoint. For the compound `Cn1ccc(C(=O)N2CC[C@H](CC(=O)Nc3ccc4cc3CCc3cncc(c3)Nc3ncc(Cl)c(n3)N4)C2)n1` [Example D106, N-[6-Chloro-2,4,8,18,22-pentaazatetracyclo[14.3.1.1(3,7).1(9,13)]docosa-1(20),3(22),4,6,9(21),10,12,16,18-nonaen-12-yl]-2-{(3R)-1-[(1-methyl-1H-pyrazol-3-yl)carbonyl]pyrrolidin-3-yl}acetamide bis(trifluoroacetate)], the figures for the 50% inhibitory concentration (IC50) in assay [1] and in assay [2] were 256 nM and 32 nM, respectively.

Regarding `O=C(C[C@H]1CCN(C(=O)c2ccno2)C1)Nc1ccc2cc1CCc1cncc(c1)Nc1ncc(Cl)c(n1)N2` [Example D105, N-[6-Chloro-2,4,8,18,22-pentaazatetracyclo[14.3.1.1(3,7).1(9,13)]docosa-1(20),3(22),4,6,9(21),10,12,16,18-nonaen-12-yl]-2-[(3R)-1-(isoxazol-5-ylcarbonyl)pyrrolidin-3-yl]acetamide bis(trifluoroacetate)], the IC50 in assay [1] came out at 216 nM; in assay [2], 25 nM.

For the compound `Cn1cncc1C(=O)N1CC[C@H](CC(=O)Nc2ccc3cc2CCc2cncc(c2)Nc2ncc(Cl)c(n2)N3)C1` [Example D111, N-[6-Chloro-2,4,8,18,22-pentaazatetracyclo[14.3.1.1(3,7).1(9,13)]docosa-1(20),3(22),4,6,9(21),10,12,16,18-nonaen-12-yl]-2-{(3R)-1-[(1-methyl-1H-imidazol-5-yl)carbonyl]pyrrolidin-3-yl}acetamide tris(trifluoroacetate)], the figures for the IC50 in assay [1] and in assay [2] were 689 nM and 61 nM, respectively.

For the compound `Cc1cc(C(=O)N2CCC[C@H](CC(=O)Nc3ccc4cc3CCc3cncc(c3)Nc3ncc(Cl)c(n3)N4)C2)no1` [Example D209, N-[6-Chloro-2,4,8,18,22-pentaazatetracyclo[14.3.1.1(3,7).1(9,13)]docosa-1(20),3(22),4,6,9(21),10,12,16,18-nonaen-12-yl]-2-{(3R)-1-[(5-methylisoxazol-3-yl)carbonyl]piperidin-3-yl}acetamide bis(trifluoroacetate)], the results for the IC50 in assay [1] and in assay [2] were 462 nM and 65 nM, respectively.

`CS(=O)(=O)N1CC[C@@H](CC(=O)Nc2ccc3cc2CCc2cncc(c2)Nc2ncc(Cl)c(n2)N3)C1` [Example D127, N-[6-Chloro-2,4,8,18,22-pentaazatetracyclo[14.3.1.1(3,7).1(9,13)]docosa-1(20),3(22),4,6,9(21),10,12,16,18-nonaen-12-yl]-2-[(3S)-1-(methylsulfonyl)pyrrolidin-3-yl]acetamide bis(trifluoroacetate)]: the half-inhibitory concentration (IC50) was determined as 199 nM in assay [1] and 12 nM in assay [2].

On to `O=C(C[C@H]1CCN(C(=O)Nc2ccc(F)cc2)C1)Nc1ccc2cc1CCc1cncc(c1)Nc1ncc(Cl)c(n1)N2` [Example D102, (3R)-3-(2-{[6-Chloro-2,4,8,18,22-pentaazatetracyclo[14.3.1.1(3,7).1(9,13)]docosa-1(20),3(22),4,6,9(21),10,12,16,18-nonaen-12-yl]amino}-2-oxoethyl)-N-(4-fluorophenyl)pyrrolidine-1-carboxamide bis(trifluoroacetate)], for which the IC50 in assay [1] stood at 78 nM; in assay [2], 2.5 nM.

`O=C(C[C@@H]1CCN(C(=O)c2c[nH]nn2)C1)Nc1ccc2cc1CCc1cncc(c1)Nc1ncc(Cl)c(n1)N2` [Example D132, N-[6-Chloro-2,4,8,18,22-pentaazatetracyclo[14.3.1.1(3,7).1(9,13)]docosa-1(20),3(22),4,6,9(21),10,12,16,18-nonaen-12-yl]-2-[(3S)-1-(1H-1,2,3-triazol-4-ylcarbonyl)pyrrolidin-3-yl]acetamide bis(trifluoroacetate)]: the IC50 in assay [1] is 43 nM; in assay [2], 3.2 nM.

Consider `O=C(C[C@@H]1CCN(C(=O)Nc2ccccc2)C1)Nc1ccc2cc1CCc1cncc(c1)Nc1ncc(Cl)c(n1)N2` [Example D113, (3S)-3-(2-{[6-Chloro-2,4,8,18,22-pentaazatetracyclo[14.3.1.1(3,7).1(9,13)]docosa-1(20),3(22),4,6,9(21),10,12,16,18-nonaen-12-yl]amino}-2-oxoethyl)-N-phenylpyrrolidine-1-carboxamide bis(trifluoroacetate)], for which the concentration for half-maximal inhibition (IC50) in assay [1] turned out to be 161 nM; in assay [2], 11 nM.

For the compound `O=C(C[C@H]1CCN(C(=O)Nc2cccnc2)C1)Nc1ccc2cc1CCc1cncc(c1)Nc1ncc(Cl)c(n1)N2` [Example D101, (3R)-3-(2-{[6-Chloro-2,4,8,18,22-pentaazatetracyclo[14.3.1.1(3,7).1(9,13)]docosa-1(20),3(22),4,6,9(21),10,12,16,18-nonaen-12-yl]amino}-2-oxoethyl)-N-pyridin-3-ylpyrrolidine-1-carboxamide tris(trifluoroacetate)], the figures for the IC50 in assay [1] and in assay [2] were 172 nM and 14 nM, respectively.

For `N#Cc1cccc(NC(=O)N2CC[C@H](CC(=O)Nc3ccc4cc3CCc3cncc(c3)Nc3ncc(Cl)c(n3)N4)C2)c1` [Example D99, (3R)-3-(2-{[6-Chloro-2,4,8,18,22-pentaazatetracyclo[14.3.1.1(3,7).1(9,13)]docosa-1(20),3(22),4,6,9(21),10,12,16,18-nonaen-12-yl]amino}-2-oxoethyl)-N-(3-cyanophenyl)pyrrolidine-1-carboxamide bis(trifluoroacetate)], the IC50 in assay [1] came to 107 nM; in assay [2] it was 15 nM.

Consider `N#Cc1ccccc1NC(=O)N1CC[C@H](CC(=O)Nc2ccc3cc2CCc2cncc(c2)Nc2ncc(Cl)c(n2)N3)C1` [Example D100, (3R)-3-(2-{[6-Chloro-2,4,8,18,22-pentaazatetracyclo[14.3.1.1(3,7).1(9,13)]docosa-1(20),3(22),4,6,9(21),10,12,16,18-nonaen-12-yl]amino}-2-oxoethyl)-N-(2-cyanophenyl)pyrrolidine-1-carboxamide bis(trifluoroacetate)], for which the IC50 in assay [1] came to 191 nM; in assay [2], 20 nM.

`O=C(C[C@H]1CCCN(c2nc3ccccc3s2)C1)Nc1ccc2cc1CCc1cncc(c1)Nc1ncc(Cl)c(n1)N2` [Example D212, 2-[(3R)-1-(1,3-Benzothiazol-2-yl)piperidin-3-yl]-N-[6-chloro-2,4,8,18,22-pentaazatetracyclo[14.3.1.1(3,7).1(9,13)]docosa-1(20),3(22),4,6,9(21),10,12,16,18-nonaen-12-yl]acetamide tris(trifluoroacetate)]: the IC50 in assay [1] was more than 1000 nM; in assay [2], 64 nM.

As for `O=C(C[C@H]1CCN(C(=O)Nc2ccccc2F)C1)Nc1ccc2cc1CCc1cncc(c1)Nc1ncc(Cl)c(n1)N2` [Example D104, (3R)-3-(2-{[6-Chloro-2,4,8,18,22-pentaazatetracyclo[14.3.1.1(3,7).1(9,13)]docosa-1(20),3(22),4,6,9(21),10,12,16,18-nonaen-12-yl]amino}-2-oxoethyl)-N-(2-fluorophenyl)pyrrolidine-1-carboxamide bis(trifluoroacetate)], the IC50 was 255 nM in assay [1] and 8.5 nM in assay [2].

On to `O=C(C[C@H]1CCCN(c2nc3cccnc3o2)C1)Nc1ccc2cc1CCc1cncc(c1)Nc1ncc(Cl)c(n1)N2` [Example D214, N-[6-Chloro-2,4,8,18,22-pentaazatetracyclo[14.3.1.1(3,7).1(9,13)]docosa-1(20),3(22),4,6,9(21),10,12,16,18-nonaen-12-yl]-2-[(3R)-1-[1,3]oxazolo[5,4-b]pyridin-2-ylpiperidin-3-yl]acetamide tris(trifluoroacetate)], for which the concentration for half-maximal inhibition (IC50) was more than 1000 nM in assay [1] and 12 nM in assay [2].

The values above are taken from patent US8871753B2, “Macrocyclic compounds and their use as kinase inhibitors” (Incyte Corporation, priority 2008, dated 2014).
